Literature values as cited in article PMC7395068, “The evolution of strategies to minimise the risk of human drug-induced liver injury (DILI) in drug discovery and development” (Archives of Toxicology, 2020).
Like-named read-outs stand apart in the source and are kept apart here.

Experiments:
[1] = cited from earlier work
HepG2 cells [2] = settings: In vitro Assay; ref O'Brien 2006; cited from earlier work
[3] = tested on: isolated mouse liver mitochondria; settings: In vitro Assay; ref Porceddu 2012; cited from earlier work
HepG2 cells [4] = settings: In vitro Assay; ref Persson 2013; cited from earlier work
human hepatocytes = settings: cited from earlier work
[5] = cited from earlier work; remark: listed apart in the source
[6] = tested on: THLE or HepG2 cells, isolated mitochondria, BSEP; settings: cited from earlier work
PHH spheroids = settings: In vitro Assay; ref Vorrink 2018; cited from earlier work
[7] = cited from earlier work; remark: listed apart in the source
[8] = tested on: THLE-Null and THLE-3A4 cells; settings: In vitro Assay; ref Gustafsson 2014; cited from earlier work
rBsep = settings: In vitro Assay; ref Dawson 2012; cited from earlier work
[9] = tested on: HepG2 cells, primary human hepatocytes; settings: cited from earlier work

SMILES | DILI +VE (5-8), DILI -VE (-4) ([1]; ref Chen 2016) | DILI severity category ([1]; ref Chen 2016) | Structural based (HCI) (HepG2 cells [2]) | DILI Score (FDA) (1-8) ([5]; ref Chen 2011) | Partition Hybrid HRM Score ([6]; In vitro Assay, ref Aleo 2019) | Ro2 Hybrid HRM Score ([6]; In vitro Assay, ref Aleo 2019) | hLiMTs ATP <20 x Cmax (PHH spheroids) | In vivo DILI ([7]; […]) | In vivo DILI ([7]; ref Aleo 2019) | DILI +VE (5-8), DILI -VE (-4) ([1]; in vivo) | DILI severity category ([1]; in vivo) | DILI Score (FDA) (1-8) ([5]; in vivo) | In vivo DILI ([7]; in vivo) | other results
Sc1ncnc2nc[nH]c12 [mercaptopurine] | +VE | vMost-DILI-Concern | +VE | 8 | +VE | +VE | +VE (IC20 < 20 × Cmax.tot cut-off) | +VE | +VE | – | – | – | – | in vitro data EC2<=1x Cmax [3]: -VE; in vitro data EC20<=2uM [3]: +VE; Cluser analysis (HepG2 cells [4]): +VE; Structural based (HCI) (HepG2 cells [4]): +VE; Structural based (HCI) (human hepatocytes; In vitro Assay, ref Xu 2008): -VE; In vivo DILI ([7]; ref O'Brien 2006): +VE; In vivo DILI ([7]; ref Persson 2013): +VE; In vivo DILI ([7]; ref Porceddu 2012): +VE; In vivo DILI ([7]; ref Vorrink 2018): +VE; In vivo DILI ([7]; ref Xu 2008): +VE
Cc1cccc(C)c1OCC(C)N (centres unmarked) [mexiletine] | – | – | – | – | – | – | +VE (IC20 < 20 × Cmax.tot cut-off) | – | – | +VE | vMost-DILI-Concern | 3 | +VE | Structural based (HCI) (human hepatocytes): +VE
CN(C)c1ccc(O)c2c1C[C@H]1C[C@H]3[C@H](N(C)C)C(O)=C(C(N)=O)C(=O)[C@@]3(O)C(O)=C1C2=O [minocycline] | – | – | +VE | – | – | – | – | – | – | +VE | vMost-DILI-Concern | 2 | +VE | Cluser analysis (HepG2 cells [4]): -VE; Structural based (HCI) (HepG2 cells [4]): -VE; Ro2 Hybrid HRM Score [6]: +VE
O=C1CC[C@@]2(O)[C@H]3Cc4ccc(O)c5c4[C@@]2(CCN3CC2CC2)[C@H]1O5 [naltrexone] | – | – | – | – | – | – | – | – | – | -VE | Ambiguous DILI-concern | 3 | +VE | Structural based (HCI) (human hepatocytes; In vitro Assay, ref Xu 2008): -VE; THLE-Null [8]: -VE; THLE-Null/3A4 [8]: -VE
CNC(=C[N+](=O)[O-])NCCSCc1csc(CN(C)C)n1 [nizatidine] | +VE | vLess-DILI-Concern | +VE (lowest HCI endpoint IC50 (or in the absence of dose–response < 100 µM) < 30 × total human plasma exposure levels (Cmax.tot)) | 5 | -VE | -VE | – | – | +VE | – | – | – | – | In vivo DILI ([7]; ref O'Brien 2006): +VE
CNC(=C[N+](=O)[O-])NCCSCc1ccc(CN(C)C)o1 [ranitidine] | +VE | vLess-DILI-Concern | – | 5 | -VE | -VE | – | +VE | +VE | – | – | – | – | Inhibition of rBsep cutoff<1& cmax u>.2 (rBsep): -VE; Inhibition of rBsep cutoff<3 (rBsep): -VE; in vitro data EC2<=1x Cmax [3]: +VE; in vitro data EC20<=2uM [3]: -VE; THLE-Null [8]: -VE; In vivo DILI ([7]; ref Dawson 2012): +VE; In vivo DILI ([7]; ref Garside 2014): +VE; In vivo DILI ([7]; ref Gustafsson 2014): +VE; In vivo DILI ([7]; ref Porceddu 2012): +VE; In vivo DILI ([7]; ref Xu 2008): -VE
CO[C@H]1/C=C/O[C@@]2(C)Oc3c(C)c(O)c4c(O)c(c(/C=N/N5CCN(C)CC5)c(O)c4c3C2=O)NC(=O)/C(C)=C\C=C\[C@H](C)[C@H](O)[C@@H](C)[C@@H](O)[C@@H](C)[C@H](OC(C)=O)[C@@H]1C [rifampin] | +VE | vMost-DILI-Concern | – | 8 | +VE | +VE | – | +VE | +VE | – | – | – | – | Cluster 1-6 +VE Assay ([9]; In vitro Assay, ref Garside 2014): -VE; In vivo DILI ([7]; ref Garside 2014): +VE
CN(C)[C@@H]1C(O)=C(C(N)=O)C(=O)[C@@]2(O)C(O)=C3C(=O)c4c(O)cccc4[C@@](C)(O)[C@H]3C[C@@H]12 [tetracycline] | – | – | – | – | – | – | +VE (IC20 < 20 × Cmax.tot cut-off) | – | – | +VE | vLess-DILI-Concern | 2 | – | Cluster 1-6 +VE Assay [9]: -VE; Structural based (HCI) (human hepatocytes): +VE
COc1ccc(C(CN(C)C)C2(O)CCCCC2)cc1 (centres unmarked) [venlafaxine] | – | – | – | – | – | – | – | – | – | +VE | vLess-DILI-Concern | 7 | – | Cluster 1-6 +VE Assay [9]: -VE; Partition Hybrid HRM Score [6]: +VE; Ro2 Hybrid HRM Score [6]: +VE
